row,melting point,SMILES
1,166 to 168 °C,CCOC(=O)C1=C(C)N=C(N)N(C(=O)OCC)C1c1cccc([N+](=O)[O-])c1 (stereo unspecified)
2,170 to 172 °C,CC(=O)Oc1cccc2c1C(=O)C(CN1CCC(O)(c3ccccc3)CC1)CC2 (stereo unspecified)
3,90 to 95 °C,CC(C)(NC=O)c1cccc(C(F)(F)C(F)(F)c2ccccc2)c1
4,> 300 °C,COc1cc2cc3c(Nc4ccc(Sc5nccn5C)c(Cl)c4)c(C#N)cnc3cc2cc1OCCCCl
5,187 to 189 °C,CC1CCC(C(C)C)C(OC(=O)c2ccc(N)cc2O)C1 (stereo unspecified)
6,116 to 120 °C,COc1ccccc1NCCN1CCC(C(=O)c2ccc(F)cc2)CC1
7,93 to 95 °C,CC(C)(C)OC(=O)N1C[C@H](O)C[C@H]1C(=O)OC(c1ccccc1)c1ccccc1
8,115 to 117 °C,O=C1c2c(-c3ccccc3F)noc2CCC1CCCN1CCN(c2ncccn2)CC1 (stereo unspecified)
9,164 to 165 °C,Cn1ncnc1COc1nn2c(-c3ccccc3F)nncc2c1-c1cc(F)ccc1F
10,71 to 72 °C,O=C1OCc2cc(C(F)(F)F)ccc21
11,68 to 69 °C,Cc1ccc(S(=O)(=O)OC[C@@H](O)CCc2ccccc2)cc1
12,204 to 205 °C,Oc1c(Cc2ccccc2)nc(Cc2ccccc2)c2c1COC2
13,158 °C,Cn1cc(-c2ccc(Cl)c(OC3SCC(O)C(O)C3O)c2)cn1 (stereo unspecified)
14,114 to 116 °C,CC(C)C(=O)Nc1ccc(N)c(C(F)(F)F)c1
15,77 °C,COCc1c(C(C)C)nc(-c2ccc(F)cc2)c(C=O)c1C(C)C
16,234 °C,CC(=O)Nc1ccc2oc3c(OC(F)F)ccc(C(=O)Nc4c(Cl)cncc4Cl)c3c2c1
17,268 to 269 °C,CC(CC#N)(C(=O)NCC#N)c1ccc(C(=O)Nc2cn3cc(Cl)ccc3n2)cc1 (stereo unspecified)
18,110 to 112 °C,CCCCC(=O)N(CCCCn1ccnc1)C1=Nc2cccc3cccc1c23
19,305 °C,CS(=O)(=O)c1cccc(NC(=O)c2cnn3c(C(F)(F)F)cc(-c4ccc(Cl)cc4)nc23)c1
20,90 to 95 °C,COC(=O)c1ccc(OCCNC(=O)C2Cc3ccccc3N2S(=O)(=O)c2ccc(-c3ccc(F)cc3)cc2)c(C(F)(F)F)c1 (stereo unspecified)
21,245 to 247 °C,Cc1c(N2CC(O)C2)c(F)cc2c(=O)c(C(=O)O)cn(-c3nc(N)c(F)cc3F)c12
22,172 to 174 °C,CCCN(Cc1ccc(-c2ccccc2-c2nnn[nH]2)cc1)c1nc(C)cnc1C(=O)OCC
23,156 to 158 °C,CC(C)[C@H](NC(=O)[C@H](C)NC(=O)OCc1ccccc1)[C@@H](O)c1c(-c2ccccc2)c1=O

row,melting point,SMILES
1,179 to 183 °C,Cc1c(CCc2ccccc2)c(=O)oc2cc(OCC#N)cc(OCC#N)c12
2,111 to 115 °C,CCC(O)c1ccccc1-c1ccc(C(=O)N2Cc3ccc(C(=O)NCc4cccnc4)n3Cc3ccccc32)cc1 (stereo unspecified)
3,242 to 244 °C,Cc1cc(Nc2cc(-c3ccccc3)nc3ccccc23)[nH]n1
4,311 to 319 °C,Cc1nc2c3c(c(C(N)=O)cc2n1C)CCC(c1ccccc1)N3 (stereo unspecified)
5,147 to 148 °C,COC(=O)c1cc(-c2cccc(C(F)(F)F)c2)c(=O)n2ccccc12
6,148 to 150 °C,CC(C)(C)OC(=O)NOCC(=O)NNC(=O)c1cc(S(=O)(=O)O)cc(O)c1O
7,267 to 268 °C,Cc1cc(CNC(=O)c2nc3ccc(F)c(OCCc4ccc(C(=O)O)cc4)c3c(=O)[nH]2)ccc1F
8,133 to 134 °C,COc1ccc(-c2ccccc2)c2ccc(C)nc12
9,271 °C,FC(F)(F)c1ccc(Cl)cc1CN1CCNc2ncc(-c3cn[nH]c3)cc21
10,75 to 77 °C,N#CSCC(=O)c1ccccc1
11,164 to 168 °C,CCc1cc(-c2ccc(-c3cc[nH]n3)cc2)ccc1OC
12,188 °C,Cc1cc2c(=O)n(CCN3CCC(Nc4nc5ccccc5n4Cc4ccc(F)cc4)CC3)c(=O)[nH]c2s1
13,95 to 96 °C,CC1=CC(=Nc2nccs2)C(C)C(C)=C1O (stereo unspecified)
14,197 to 198 °C,N#Cc1c(-c2ccccc2)c(-c2ccccc2)nn(CCO)c1=O
15,111 to 113 °C,NCCc1cn(C(c2ccccc2)(c2ccccc2)c2ccccc2)cn1
16,68 to 76.5 °C,COC(=C(C)C#N)C(F)(F)F
17,227 to 228 °C,S=c1nc(-c2ccc(Cl)c(Cl)c2)[nH]n1Cc1ccccc1
18,85 to 87 °C,Cc1ccc(Oc2ccccc2C(=N)NO)c(O)c1
19,175 to 180 °C,NCCN1CCN(c2ncc3ncnc(Nc4ccc(F)c(Cl)c4)c3n2)CC1
20,201 to 203 °C,CSc1ncc2ccc(Cl)nc2n1
21,143 to 144 °C,Cc1nc(-c2ccc(-c3ccco3)cc2)c(-c2ccc(S(C)(=O)=O)cc2)o1
22,> 220 °C,O=C(Nc1ccccc1)C1=Cc2ccccc2S1(=O)=O
23,178 to 180 °C,O=C1CNC(c2ccc(Cl)cc2)=NN1CC(F)(F)F

row,melting point,SMILES
1,191 to 192 °C,Cn1cc(-c2ccccc2)nc1CO
2,266 to 270 °C,COc1ccc2c(c1)c1c3c(c(-c4ccccc4)cc1n2CCC(N)=O)C(=O)NC3=O
3,211 to 212 °C,CNC1([C@@H]2CCN(c3c(F)cc4c(=O)c(C(=O)O)cn([C@@H]5C[C@@H]5F)c4c3C)C2)CC1
4,92 °C,O=C(O)Cc1ccc(OCCNC(=O)C2Cc3ccccc3N2S(=O)(=O)c2ccc(-c3ccc(F)cc3)c(C(F)(F)F)c2)cc1 (stereo unspecified)
5,129 to 132 °C,CCOC(=O)C(Cc1ccccc1[N+](=O)[O-])(NC=O)C(=O)OCC
6,> 225 °C,O=C1NC(=S)SC1=Cc1ccc(OCc2ccccc2-c2ccccc2C(=O)O)cc1
7,146 to 152 °C,CCc1cc2c(=O)c3cccc(C(=O)OCOC(=O)C(C)(C)C)c3n(Cc3ccc(-c4ccccc4-c4nnn[nH]4)cc3)c2s1
8,227 to 229 °C,CC1CCCCC1C(=O)Nc1ccc(-c2cnc(-c3ccc(NC(=O)c4ccccn4)cc3)[nH]2)cc1 (stereo unspecified)
9,120 °C,COCCc1nc(-c2ccc(C(F)(F)F)cc2)ncc1COc1ccc(OC(C)(C)C(=O)O)c(C)c1
10,207 to 209 °C,Nc1nc(F)nc2c1ncn2C1OC(CO)C(O)C1F (stereo unspecified)
11,60.3 to 61.3 °C,CCCCCc1ccc(-c2ccc(N)cc2)nc1
12,211 to 213 °C,C#CCN1C(=O)COc2cc(F)c(-n3nc4n(c3=O)CCS4)cc21
13,217 to 219 °C,CCn1cc(C(=O)NCc2ccc(Cl)cc2)c(=O)c2cc(C#CCO)sc21
14,148 to 151 °C,COc1cccc(Cn2nc3oc(=O)cc(C)c3c2C)c1
15,210 °C,CNc1ccc(CC(=O)C(=O)O)cc1
16,136 to 137 °C,CC(Oc1ccc(-c2ccc(C#N)c(C#N)c2)cc1)C(O)CCc1cccnc1 (stereo unspecified)
17,163 °C,COc1ccccc1CC(=O)N1C[C@@H]2C(=O)CCC(c3ccccc3)(c3ccccc3)[C@@H]2C1 (racemic)
18,194 to 196 °C,COC(=O)c1ccc2c(nc(C)n2Cc2ccccc2)c1C1=NC(C)(C(C)C)C(=O)N1 (stereo unspecified)
19,127 to 128 °C,COC(=O)Cc1nc(-c2ccc(Cl)cc2)oc1-c1ccsc1
20,110 to 112 °C,COc1ccc(N2CCN(CC(O)COc3ccc(OCc4ccccc4)cc3)CC2)c(OC)c1 (stereo unspecified)
21,112 °C,N#CC=Cc1ccc([N+](=O)[O-])cc1
22,118 to 120 °C,CC(N)CNC(=O)Nc1ccccc1 (stereo unspecified)
23,46 to 47 °C,CC1=CC2(C)CC3CCCC(C)(C2=O)C13 (stereo unspecified)

row,melting point,SMILES
1,60.5 to 61 °C,CCCCCCCC(=O)OC1CC(=O)NC1=O (stereo unspecified)
2,201 to 202 °C,CC1Nc2ccc(-c3ccc(C#N)[nH]3)cc2C(C)(C)O1 (stereo unspecified)
3,132 to 133 °C,O=C(NCC1CC1)N1CC(Oc2ccc(C(F)(F)F)cc2)C1
4,76 to 78 °C,CN(C)CCOc1cccc(C=CC(=O)N2CCc3c([nH]c4ccccc34)C2c2ccc3c(c2)OCO3)c1 (stereo unspecified)
5,82 to 83 °C,Nc1c(NCCCO)cccc1OCc1ccccc1
6,60 to 61 °C,COc1ccc(C(=O)O[Si](C)(C)C)cc1
7,134 to 135 °C,O=C(CCCCCl)c1ccc2c(c1)Cc1cc(C(=O)CCCCCl)ccc1O2
8,57 to 59 °C,CCOC(=O)C(C(=O)OCC)=C(SCc1ccc(OC)cc1)SCc1ccc(OC)cc1
9,135 °C,CCC(C)(C)c1ccc(OCC(=O)Nc2cccc(C(C)=O)c2)c(C(C)(C)CC)c1
10,193 to 196 °C,Cc1cc(N2CCC3(CC2)OCCO3)c2cc(C)c(-c3ccc(Cl)cc3Cl)n2n1
11,132 °C,O=S(=O)(CC(O)(CBr)c1cccc(Br)c1)c1ccccc1 (stereo unspecified)
12,184 to 186 °C,CC(=O)Oc1ccc(CN/C=C2\C(=O)NC(=O)c3ccccc32)cc1OC(C)=O
13,118 to 120 °C,CC(OCc1cc2cc(C(F)(F)F)ccc2n1S(=O)(=O)c1ccc2c(c1)OCCN2C)C(=O)O (stereo unspecified)
14,137 to 138 °C,NNC(=O)c1ccc2occ(-c3cccc(OC(F)(F)F)c3)c2c1
15,173 to 175 °C,O=C(c1ccccc1)c1ccc(N2CCC(N3Cc4ccccc4C3=O)CC2)cc1
16,207 to 209 °C,Cc1c(NC(=O)c2ccc(-c3ccc(F)cc3)nc2)ccc2cc(CN3CCCC3)cnc12
17,174 to 177 °C,Cc1noc(C)c1-c1cn(Cc2ccccc2)c(=O)c2cnccc12
18,138 °C,OCc1cc(N2CCOCC2)ncn1
19,139 °C,COc1ccc(CCN2CCC(=C3c4ccn(C)c4CCn4ncnc43)CC2)cc1
20,212 to 218 °C,O=C(O)c1ccc(Oc2ccc(Oc3ccc(C(=O)O)c(C(=O)O)c3)c(P(=O)(c3ccccc3)c3ccccc3)c2)cc1C(=O)O
21,190 to 192 °C,CC1(C)CC(NC(=O)C(=O)NCCO)CC(C)(C)N1OC1CCCCC1
22,184 to 186 °C,CCOc1cc(C(=O)c2ccccn2)ccc1OCCOc1c(CC(=O)O)cccc1OC
23,125 °C,CN(CCCCCCCNC(=O)NCCSCc1csc(NC(=N)N)n1)CCN(Cc1ccc(F)cc1)c1ccccn1

row,SMILES,melting point
1,CN1Cc2c(C#CCO)ncn2-c2ccccc2C1=O,240 to 241 °C
2,Cc1nnc2n1-c1sc(Cl)cc1C(c1ccccc1Cl)=NC2,205 to 206 °C
3,CCP(=O)(O)CCCN,233 to 239 °C
4,CC(C)(C)C(=O)c1c(CC(C)(C)C(=O)O)n(Cc2ccc(Cl)cc2)c2ccc(OCc3ccc4occc4n3)cc12,160 °C

# — a melting point compilation (Tetko et al.; mined from patent text by program, amines drawn as free bases though some values may be those of a salt)
